Converted amounts (≈) assume the structure as drawn. Where two headings read alike, the source gives them in different places.
Legend:
RAW 264.7 cells [1] = experiment: in vitro; format: cell-based; settings: MTT assay
RAW 264.7 cells [2] = experiment: Nitric oxide production inhibition assay; format: cell-based
[3] = system: Salmonella typhimurium DMST 562; experiment: Antimicrobial MIC, 2-fold serial dilution; settings: Gram-negative; Salmonella typhimurium (DMST 562); Inactive at >128 μg/mL
[4] = system: Salmonella typhi DMST 22842; experiment: microbe, parasite or virus in culture; format: cell-based; settings: Gram-negative; Salmonella typhi (DMST 22842); Inactive at >128 μg/mL
[5] = system: Enterococcus faecalis ATCC 29212; experiment: Antimicrobial MIC, 2-fold serial dilution; settings: Gram-positive; Enterococcus faecalis (ATCC 29212); Inactive at >128 μg/mL
[6] = system: Candida albicans ATCC 10231; experiment: Antimicrobial MIC, 2-fold serial dilution; settings: Fungi; Candida albicans (ATCC 10231); Inactive at >128 μg/mL
[7] = system: Escherichia coli TISTR 780; experiment: Antimicrobial MIC, 2-fold serial dilution; settings: Gram-negative; Escherichia coli (TISTR 780); Inactive at >128 μg/mL
[8] = system: methicillin resistant Staphylococcus aureus NPRC 001R; experiment: Antimicrobial MIC, 2-fold serial dilution; settings: Gram-positive; Methicillin Resistant Staphylococcus aureus (NPRC 001R); Inactive at >128 μg/mL
in vitro [9] = format: cell-based; settings: mouse
3T3-L1 cells = experiment: in vitro; format: cell-based; settings: 3T3-L1 adipocyte cells, glucose consumption assay
in vitro [10] = format: cell-based; settings: mouse; remark: listed apart in the source
[11] = system: Staphylococcus aureus ATCC 25923; experiment: Antimicrobial MIC, 2-fold serial dilution; settings: Gram-positive; Staphylococcus aureus (ATCC 25923); Inactive at >128 μg/mL
3T3-L1 adipocyte cells = experiment: Glucose consumption assay; format: cell-based; settings: for EC50: Mus musculus, 3T3-L1, read-out: Glucose consumption (IC50, μM); for Glucose consumption (IC50, μM): induction of glucose consumption, 3T3-L1 adipocyte cells, Inactive at >100 μM
[12] = system: advanced glycation end products (AGEs); experiment: Glycation inhibition assay; format: biochemical; settings: Inactive at >100 μM
[13] = system: Shigella flexneri DMST 4423; experiment: Antimicrobial MIC, 2-fold serial dilution; settings: Gram-negative; Shigella flexneri (DMST 4423); Inactive at >128 μg/mL
[14] = system: Micrococcus luteus DMST 15503; experiment: Antimicrobial MIC, 2-fold serial dilution; settings: Gram-positive; Micrococcus luteus (DMST 15503); Inactive at >128 μg/mL
[15] = system: Pseudomonas aeruginosa ATCC 10145; experiment: Antimicrobial MIC, 2-fold serial dilution; settings: Pseudomonas aeruginosa, ATCC10145, read-out: MIC (μg/mL) PA
[16] = system: Streptococcus pyogenes ATCC, 19615; experiment: Antimicrobial MIC, 2-fold serial dilution; settings: Gram-positive; Streptococcus pyogenes (ATCC, 19615); Inactive at >128 μg/mL
[17] = LPS-stimulated NO production in RAW 264.7 cells, Inactive at >100 μM

| Structure (SMILES) | MIC (μg/mL) STR [3] | MIC (μg/mL) ST [4] | MIC (μg/mL) EF [5] | MIC (μg/mL) CA [6] | MIC (μg/mL) EC [7] | MIC (μg/mL) MRSA [8] | viability (in vitro [9]) | toxicity to the cells (3T3-L1 cells) | viability (in vitro [10]) | MIC (μg/mL) SA [11] | EC50 (3T3-L1 adipocyte cells) | Glycation inhibition (IC50, μM) [12] | MIC (μg/mL) SF [13] | MIC (μg/mL) MT [14] | MIC [15] | MIC (μg/mL) SP [16] | NO Inhibition (IC50, μM) (RAW 264.7 cells [2]; [17]) | Glucose consumption (IC50, μM) (3T3-L1 adipocyte cells) | other results |
| --- | --- | --- | --- | --- | --- | --- | --- | --- | --- | --- | --- | --- | --- | --- | --- | --- | --- | --- | --- |
| N=C(N)NN [Aminoguanidine, aminoguanidine, reference compound] | – | – | – | – | – | – | – | – | – | – | – | – | – | – | – | – | – | – | Cell viability raw 264.7 cells (%) (RAW 264.7 cells [1]): 97.9 ± 0.8%; IC50 (RAW 264.7 cells [2]; read-out: NO Inhibition (IC50), LPS-stimulated NO production in RAW 264.7 cells, Inactive at >100 μM): 22.4 ± 0.78 µM |
| CC1(C)C=Cc2cc(C=O)ccc2O1 [Compound 27, 2,2-dimethyl-2H-chromene-6-carboxaldehyde] | Inactive | Inactive | Inactive | Inactive | Inactive | Inactive | 98.2 ± 1.7% | without toxicity to the cells | 97.9 ± 1.2% | Inactive | 29.1 ± 0.86 µM | Inactive | Inactive | Inactive | 128 µg/mL (≈ 680 µM) | Inactive | – | – | IC50 (RAW 264.7 cells [2]; Mus musculus, RAW264.7, read-out: NO Inhibition (IC50, μM)): 52.5 ± 0.56 µM |
| COc1c2c(cc3oc(=O)ccc13)OC(C)(C)C=C2 [Compound 26, xanthoxyletin] | Inactive | Inactive | Inactive | Inactive | Inactive | Inactive | – | without toxicity to the cells | – | Inactive | 33.4 ± 0.34 µM | Inactive | Inactive | Inactive | 128 µg/mL (≈ 496 µM) | Inactive | Inactive | – | – |
| CN(C)C(=N)N=C(N)N [Metformin, metformin, reference compound] | – | – | – | – | – | – | 96.1 ± 0.9% | – | 99.4 ± 0.6% | – | 47.2 ± 1.17 µM | – | – | – | – | – | – | – | – |
| O=c1c(-c2ccc(O)cc2)coc2cc(O)cc(O)c12 [Compound 21, genistein] | Inactive | Inactive | Inactive | Inactive | Inactive | Inactive | – | – | – | Inactive | – | Inactive | Inactive | Inactive | 128 µg/mL (≈ 474 µM) | Inactive | Inactive | Inactive | – |
| COc1ccc(C=CC(=O)O)c(O)c1 [Compound 28, 2-hydroxy-4-methoxy-cinnamic acid] | Inactive | Inactive | Inactive | Inactive | Inactive | Inactive | – | – | – | Inactive | – | Inactive | Inactive | Inactive | 128 µg/mL (≈ 659 µM) | Inactive | Inactive | Inactive | – |

— publication PMC8102414 (Heliyon, 2021)
